Results from patent publication US9663519B2, “Compounds useful as inhibitors of ATR kinase” (Vertex Pharmaceuticals Incorporated, priority 2013, dated 2017).

What was measured:
full-length ATR = full-length ATR (Homo sapiens (Human), UniProt Q13535); experiment: ATR Inhibition Assay (radioactive-phosphate incorporation); type: biochemical; conditions: Ki(app); 5 nM full-length ATR, 10 μM ATP, 25° C.
Method: Compounds were screened for their ability to inhibit ATR kinase using a radioactive-phosphate incorporation assay. Assays were carried out in a mixture of 50 mM Tris/HCl (pH 7.5), 10 mM MgCl2 and 1 mM DTT. Final substrate concentrations were 10 μM [γ-33P]ATP (3 mCi 33P ATP/mmol ATP, Perkin Elmer) and 800 μM target peptide (ASELPASQPQPFSAKKK (SEQ. ID NO: 1)).
Assays were carried out at 25° C. in the presence of 5 nM full-length ATR. An assay stock buffer solution was prepared containing all of the reagents listed above, with the exception of ATP and the test compound of interest. 13.5 μL of the stock solution was placed in a 96 well plate followed by addition of 2 μL of DMSO stock containing serial dilutions of the test compound (typically starting from a final concentration of 15 μM with 3-fold serial dilutions) in duplicate (final DMSO concentration 7%). The plate was pre-incubated for 10 minutes at 25° C. and the reaction initiated by addition of 15 μL [γ-33P]ATP (final concentration 10 μM).
The reaction was stopped after […] by the addition of 30 μL 0.1M phosphoric acid containing 2 mM ATP. A multiscreen phosphocellulose filter 96-well plate (Millipore, Cat no. MAPHN0B50) was pretreated with 100 μL 0.2M phosphoric acid prior to the addition of 45 μL of the stopped assay mixture. The plate was washed with 5×200 μL 0.2M phosphoric acid. After drying, 100 μL Optiphase ‘SuperMix’ liquid scintillation cocktail (Perkin Elmer) was added to the well prior to scintillation counting (1450 Microbeta Liquid Scintillation Counter, Wallac).
After removing mean background values for all of the data points, Ki(app) data were calculated from non-linear regression analysis of the initial rate data using the Prism software package (GraphPad Prism version 3.0cx for Macintosh, GraphPad Software, San Diego Calif., USA).

[1] = tested on: HCT116 colorectal cancer cells; experiment: Cisplatin Sensitization Assay (96 h cell viability MTS); type: cell-based; conditions: Cisplatin sensitization value: concentration of compound required to reduce the IC50 of Cisplatin alone by at least 3-fold; HCT116, 96 h MTS
Method: Compounds can be screened for their ability to sensitize HCT116 colorectal cancer cells to Cisplatin using a 96 h cell viability (MTS) assay. […] Compounds and Cisplatin are then both added simultaneously to the cell media in 2-fold serial dilutions from a top final concentration of 10 μM as a full matrix of concentrations in a final cell volume of 200 μl, and the cells are then incubated at 37° C. in 5% CO2. After 96 h, 40 μl of MTS reagent (Promega G358a) is added to each well and the cells are incubated for 1 h at 37° C. in 5% CO2. Finally, absorbance is measured at 490 nm using a SpectraMax Plus 384 reader (Molecular Devices) and the concentration of compound required to reduce the IC50 of Cisplatin alone by at least 3-fold (to 1 decimal place) can be reported.

full-length ATR, sequence (Q13535 whole entry): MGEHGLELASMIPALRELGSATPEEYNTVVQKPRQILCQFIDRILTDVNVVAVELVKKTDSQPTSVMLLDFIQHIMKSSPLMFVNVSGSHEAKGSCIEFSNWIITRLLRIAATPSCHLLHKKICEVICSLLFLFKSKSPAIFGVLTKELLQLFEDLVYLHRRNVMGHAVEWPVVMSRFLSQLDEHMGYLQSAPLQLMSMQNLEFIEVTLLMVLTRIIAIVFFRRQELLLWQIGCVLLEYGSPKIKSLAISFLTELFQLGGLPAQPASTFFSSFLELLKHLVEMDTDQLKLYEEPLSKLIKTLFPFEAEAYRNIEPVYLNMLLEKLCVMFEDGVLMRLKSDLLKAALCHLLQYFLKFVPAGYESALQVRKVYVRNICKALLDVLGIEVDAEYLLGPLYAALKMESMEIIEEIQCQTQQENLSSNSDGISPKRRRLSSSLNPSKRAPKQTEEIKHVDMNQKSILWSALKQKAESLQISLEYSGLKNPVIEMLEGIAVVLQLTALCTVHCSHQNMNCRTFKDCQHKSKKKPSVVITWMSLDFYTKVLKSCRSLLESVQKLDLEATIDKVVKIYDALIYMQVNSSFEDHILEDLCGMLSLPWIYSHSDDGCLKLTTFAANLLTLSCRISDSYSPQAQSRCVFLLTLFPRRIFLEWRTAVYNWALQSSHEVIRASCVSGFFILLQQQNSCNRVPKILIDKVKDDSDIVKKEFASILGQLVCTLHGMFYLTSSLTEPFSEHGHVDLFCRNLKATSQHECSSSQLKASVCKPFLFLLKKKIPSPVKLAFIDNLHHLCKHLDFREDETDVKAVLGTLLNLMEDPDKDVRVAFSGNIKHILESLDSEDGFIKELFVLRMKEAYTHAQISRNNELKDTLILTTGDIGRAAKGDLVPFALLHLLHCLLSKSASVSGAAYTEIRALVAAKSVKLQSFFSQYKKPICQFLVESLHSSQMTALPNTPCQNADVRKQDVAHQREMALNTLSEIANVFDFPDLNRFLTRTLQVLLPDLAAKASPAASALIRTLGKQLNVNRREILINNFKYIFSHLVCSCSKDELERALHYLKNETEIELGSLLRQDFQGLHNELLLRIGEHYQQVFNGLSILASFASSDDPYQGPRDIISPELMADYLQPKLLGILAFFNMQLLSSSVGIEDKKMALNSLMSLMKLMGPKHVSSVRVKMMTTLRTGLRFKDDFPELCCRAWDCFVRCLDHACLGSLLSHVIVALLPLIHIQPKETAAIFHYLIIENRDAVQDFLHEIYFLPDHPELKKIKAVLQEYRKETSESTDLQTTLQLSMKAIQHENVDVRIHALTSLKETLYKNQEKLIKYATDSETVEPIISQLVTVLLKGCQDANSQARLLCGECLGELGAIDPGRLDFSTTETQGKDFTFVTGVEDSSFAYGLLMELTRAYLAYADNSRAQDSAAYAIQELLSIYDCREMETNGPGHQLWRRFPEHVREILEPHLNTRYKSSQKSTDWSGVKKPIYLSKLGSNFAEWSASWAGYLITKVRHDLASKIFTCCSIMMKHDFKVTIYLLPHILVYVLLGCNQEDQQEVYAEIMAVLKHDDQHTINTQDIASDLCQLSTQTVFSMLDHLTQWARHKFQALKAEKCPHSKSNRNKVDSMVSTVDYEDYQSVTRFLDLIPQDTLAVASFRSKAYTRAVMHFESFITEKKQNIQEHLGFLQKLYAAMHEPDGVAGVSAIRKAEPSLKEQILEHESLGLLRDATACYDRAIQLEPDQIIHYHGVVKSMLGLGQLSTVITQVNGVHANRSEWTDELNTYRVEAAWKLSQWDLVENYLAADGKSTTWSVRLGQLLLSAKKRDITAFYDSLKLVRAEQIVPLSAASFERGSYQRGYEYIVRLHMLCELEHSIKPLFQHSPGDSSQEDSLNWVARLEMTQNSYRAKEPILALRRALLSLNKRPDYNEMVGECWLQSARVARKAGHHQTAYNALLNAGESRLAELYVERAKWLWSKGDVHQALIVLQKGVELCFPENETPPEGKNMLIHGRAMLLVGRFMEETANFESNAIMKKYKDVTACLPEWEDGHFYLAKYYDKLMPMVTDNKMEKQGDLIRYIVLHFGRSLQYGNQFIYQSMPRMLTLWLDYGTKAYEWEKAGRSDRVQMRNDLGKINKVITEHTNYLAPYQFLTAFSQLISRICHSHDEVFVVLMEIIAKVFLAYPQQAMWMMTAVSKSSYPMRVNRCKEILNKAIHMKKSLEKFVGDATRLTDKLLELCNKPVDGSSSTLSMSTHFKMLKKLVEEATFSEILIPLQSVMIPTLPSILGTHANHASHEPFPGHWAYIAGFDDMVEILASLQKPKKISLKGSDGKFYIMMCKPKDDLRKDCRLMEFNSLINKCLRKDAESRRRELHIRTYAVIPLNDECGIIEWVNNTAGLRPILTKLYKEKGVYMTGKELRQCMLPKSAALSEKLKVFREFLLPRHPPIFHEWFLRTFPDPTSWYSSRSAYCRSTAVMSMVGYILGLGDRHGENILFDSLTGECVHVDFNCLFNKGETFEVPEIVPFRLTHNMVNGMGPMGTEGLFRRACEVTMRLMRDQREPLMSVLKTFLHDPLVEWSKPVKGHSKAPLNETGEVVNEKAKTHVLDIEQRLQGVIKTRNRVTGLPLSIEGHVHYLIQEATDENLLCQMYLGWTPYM

| Ki (full-length ATR) [nM] | Compound | Synergy with Cisplatin [1] |
| --- | --- | --- |
| 10 to 1000 | COc1ncncc1NC(=O)c1c(N)nn2cc3c(nc12)CCNC3 [Compound I-9, 2-amino-N-(4-methoxypyrimidin-5-yl)-5,6,7,8-tetrahydropyrazolo[1,5-a]pyrido[4,3-d]pyrimidine-3-carboxamide] | + (Cisplatin sensitization value >0.2 μM but <5 μM) |
| 10 to 1000 | COc1ccncc1NC(=O)c1c(N)nn2cc3c(nc12)C(C)(C)CNC3 [Compound I-31, 2-amino-N-(4-methoxypyridin-3-yl)-5,5-dimethyl-5,6,7,8-tetrahydropyrazolo[1,5-a]pyrido[4,3-d]pyrimidine-3-carboxamide] | ++ (Cisplatin sensitization value >0.02 μM but <0.2 μM) |
| 10 to 1000 | CN1CCc2nc3c(C(=O)Nc4cnccc4C4CC4)c(N)nn3cc2C1 [Compound I-11, 2-amino-N-(4-cyclopropylpyridin-3-yl)-7-methyl-5,6,7,8-tetrahydropyrazolo[1,5-a]pyrido[4,3-d]pyrimidine-3-carboxamide] | +++ (Cisplatin sensitization value of <0.02 μM) |
| 10 to 1000 | COc1ccncc1NC(=O)c1c(N)nn2cc3c(nc12)CCN(C(C)C)C3 [Compound I-17, 2-amino-7-isopropyl-N-(4-methoxypyridin-3-yl)-5,6,7,8-tetrahydropyrazolo[1,5-a]pyrido[4,3-d]pyrimidine-3-carboxamide] | ++ (Cisplatin sensitization value >0.02 μM but <0.2 μM) |
| 1000 to 5000 | Nc1nn2cc3c(nc2c1C(=O)Nc1cncnc1C1CC1)CCN(C1COC1)C3 [Compound I-26, 2-amino-N-(4-cyclopropylpyrimidin-5-yl)-7-(oxetan-3-yl)-5,6,7,8-tetrahydropyrazolo[1,5-a]pyrido[4,3-d]pyrimidine-3-carboxamide] | + (Cisplatin sensitization value >0.2 μM but <5 μM) |
| 10 to 1000 | COCCN1CCc2nc3c(C(=O)Nc4cnccc4C4CC4)c(N)nn3cc2C1 [Compound I-28, 2-amino-N-(4-cyclopropylpyridin-3-yl)-7-(2-methoxyethyl)-5,6,7,8-tetrahydropyrazolo[1,5-a]pyrido[4,3-d]pyrimidine-3-carboxamide] | ++ (Cisplatin sensitization value >0.02 μM but <0.2 μM) |
| 10 to 1000 | COc1cc(Cl)ncc1NC(=O)c1c(N)nn2cc3c(nc12)CCN(C)C3 [Compound I-7, 2-amino-N-(6-chloro-4-methoxypyridin-3-yl)-7-methyl-5,6,7,8-tetrahydropyrazolo[1,5-a]pyrido[4,3-d]pyrimidine-3-carboxamide] | ++ (Cisplatin sensitization value >0.02 μM but <0.2 μM) |
| 10 to 1000 | COc1cc(Cl)ncc1NC(=O)c1c(N)nn2cc3c(nc12)CCNC3 [Compound I-6, 2-amino-N-(6-chloro-4-methoxypyridin-3-yl)-5,6,7,8-tetrahydropyrazolo[1,5-a]pyrido[4,3-d]pyrimidine-3-carboxamide] | ++ (Cisplatin sensitization value >0.02 μM but <0.2 μM) |
| 10 to 1000 | Nc1nn2cc3c(nc2c1C(=O)Nc1cnccc1OCC(F)(F)F)CCNC3 [Compound I-4, 2-amino-N-(4-(2,2,2-trifluoroethoxy)pyridin-3-yl)-5,6,7,8-tetrahydropyrazolo[1,5-a]pyrido[4,3-d]pyrimidine-3-carboxamide] | +++ (Cisplatin sensitization value of <0.02 μM) |
| 10 to 1000 | COc1ccncc1NC(=O)c1c(N)nn2cc3c(nc12)CCNC3 [Compound I-2, 2-amino-N-(4-methoxypyridin-3-yl)-5,6,7,8-tetrahydropyrazolo[1,5-a]pyrido[4,3-d]pyrimidine-3-carboxamide] | ++ (Cisplatin sensitization value >0.02 μM but <0.2 μM) |

| Compound | Ki (full-length ATR) [nM] | Synergy with Cisplatin [1] |
| --- | --- | --- |
| COc1ccncc1NC(=O)c1c(N)nn2cc3c(nc12)CCN(CCF)C3 [Compound I-19, 2-amino-7-(2-fluoroethyl)-N-(4-methoxypyridin-3-yl)-5,6,7,8-tetrahydropyrazolo[1,5-a]pyrido[4,3-d]pyrimidine-3-carboxamide] | 10 to 1000 | ++ (Cisplatin sensitization value >0.02 μM but <0.2 μM) |
